{"source": "patent US10195270B2", "about": "“Peptide/β-1,3-glucan complex and production method thereof and pharmaceutical composition containing peptide/β-1,3-glucan complex” (Japan Science and Technology Agency, priority 2014, dated 2019)", "key": {"[1]": {"system": "spleen cells of mice", "test": "Fraction of OVA peptide-specific CD8-positive (cytolytic) T cells in spleen cells of immunised mice, flow cytometer (Examples 4 and 7)", "assay_type": "in vivo, mouse", "conditions": "Example 4, FIG. 5; spleen cells of Example 3 mice stimulated with OVA peptide-dA40(S)/SPG complex, cultured 6 days", "protocol": "Mouse spleen cells were harvested from mice to which had been intradermally administered in Example 3 the (1) OVA peptide, (2) OVA peptide and CpG DNA, (3) OVA peptide-dA40(S)/SPG complex, or (4) OVA peptide-dA40(S)/SPG complex and CpG DNA. The harvested cells were stimulated using OVA peptide-dA40(S)/SPG complex and were cultured for 6 days. Then after antibody staining, a flow cytometer was used to evaluate the fraction of T cells that had cytotoxic specificity (CD8 positive) for OVA peptide.\nThe fraction of OVA peptide-specific CD8-positive T cells was low for the case (peptide) in which OVA peptide alone was administered, the case (peptide+CpG) in which OVA peptide and CpG DNA were simultaneously administered, and the case (peptide/SPG) in which OVA peptide-dA40(S)/SPG complex alone was administered.\nThe (1) OVA peptide, (2) OVA peptide and CpG DNA, (3) OVA peptide and CpG DNA-dA40(S)/SPG complex, or (4) OVA peptide-dA40(S)/CpG DNA-dA40(S)/SPG ternary complex prepared in Example 5 of Example 6 was intradermally administered, mouse spleen cells were harvested and stimulated using OVA peptide-dA40(S)/SPG complex, and the stimulated cells were cultured for 6 days. Then after antibody staining, a flow cytometer was used to evaluate the fraction of T cells that had cytotoxic specificity (CD8 positive) for OVA peptide."}, "[2]": {"system": "spleen cells of mice", "test": "Antigenic peptide-specific IFN-γ production (ELISA) by OVA peptide-stimulated spleen cells of immunised mice (Examples 3 and 6)", "assay_type": "in vivo, mouse", "conditions": "Example 3, FIG. 4; C57BL/6 mice, intradermal once; spleen cells one week after administration, stimulated with OVA peptide 10 μg/mL, ELISA after 24 hours", "protocol": "(1) One of the following was intradermally administered once to mice (C57BL/6 mouse, male, 7 weeks old): (1) antigenic peptide (OVA peptide, 5 μg) having an ovalbumin (OVA)-derived amino acid sequence (SEQ ID No. 1), (2) […] (5 μg) and CpG DNA (base sequence: […] (SEQ ID No. 2), 30 μg), (3) OVA peptide-dA40(S)/SPG complex (see Example 1, 5 μg), (4) OVA peptide-dA40(S)/SPG complex (prepared as in Example 1, 5 μg) and CpG DNA (30 μg), and (5) OVA peptide-dA40(S)/SPG complex (5 μg) and incomplete Freund's adjuvant (IFA). An investigation was performed to see whether antigen-specific interferon-γ (IFN-γ) was induced by, one week after administration, harvesting spleen cells from the mice, placing the cells in 96 wells (1.0×10^6 cells/well), and then stimulating the cells using OVA peptide (10 μg/mL).\nThen 24 hours after stimulating the spleen cells by OVA peptide, enzyme-linked immunosorbent assay (ELISA) was used to quantitatively measure IFN-γ in the culture medium. […]\nThen 24 hours after stimulating the spleen cells by OVA peptide, enzyme-linked immunosorbent assay (ELISA) was used to quantitatively measure IFN-γ in the culture medium."}}}
{"sequence": "SIINFEKL (SEQ ID No. 1) (listed as Homo sapiens) [OVA peptide]", "values": [{"measurement": "fraction of OVA peptide-specific CD8-positive T cells among the spleen cells", "setting": "[1]", "value": "low"}, {"measurement": "OVA peptide-specific interferon (IFN-γ) reaction", "setting": "[2]", "value": "No OVA peptide-specific interferon reaction was observed"}]}
